For the molecule `Cc1c(C(=O)CC(C)(C)C)c2cccc(Cl)c2n1CCC[S+](C)[O-]` (stereo not shown), the melting point stood at 123 °C.

Broadly, the melting point is the temperature of the solid-liquid transition.

These data come from patent publication US7741363B2, “3-Acylindole derivatives, preparation and therapeutic use thereof” (Sanofi-Aventis, priority 2005, dated 2010).
